For 64 compounds, IC50 results are on record in the Kinase Knowledgebase extract (Sharma et al. 2016).

Broadly, the IC50 is the concentration at which inhibition is half-maximal.

For this assay, the target named is CDK2 (human) (UniProt P24941). Put plainly: Enzyme Assay.

Bounds are passed on as bounds.

In turn, `Cc1nn2c(Nc3ccc(F)c(Cl)c3)cc(N[C@H]3CC[C@H](N)CC3)nc2c1Br` yielded an IC50 of less than 100 µM. Next, `CCOc1cccc(Nc2cc(N[C@H]3CC[C@H](N)CC3)nc3c(C#N)cnn23)c1`: less than 100 µM.

`CCCCOc1ccc(Nc2c(CCCO)c(N[C@H]3CC[C@H](N)CC3)nc3ccnn23)cc1` had a concentration for half-maximal inhibition (IC50) of less than 100 µM. For `CCOc1ccc(Nc2c(C(C)C)c(N[C@H]3CC[C@H](N)CC3)nc3ccnn23)cc1`, the IC50 was less than 100 µM. The compound `COc1ccc(-c2ccc(Nc3c(C)c(N[C@H]4CC[C@H](N)CC4)nc4ccnn34)cc2)cc1` showed a concentration for half-maximal inhibition (IC50) of less than 100 µM.

`Cc1c(N[C@H]2CC[C@H](N)CC2)nc2ccnn2c1Nc1ccc2cc[nH]c2c1` gave an IC50 of less than 100 µM. `Cc1ccccc1COc1cccc(Nc2c(C)c(N[C@H]3CC[C@H](N)CC3)nc3ccnn23)c1`: the IC50 was less than 100 µM. Next, `CCCCC(=O)c1cnn2c(Nc3ccc(OCC)cc3)c(C)c(N[C@H]3CC[C@H](N)CC3)nc12`: less than 100 µM. `N[C@H]1CC[C@H](Nc2cc(NCc3cccc(Cl)c3)n3ncc(I)c3n2)CC1` registered an IC50 of less than 100 µM. The compound `Cc1c(N[C@H]2CC[C@H](N)CC2)nc2ccnn2c1Nc1ccc(-c2ccsc2)cc1` had an IC50 of less than 100 µM. `Cc1c(NC2CCCNC2)nc2ccnn2c1Nc1ccc(-c2cccc(N)c2)cc1` (centres undefined) returned an IC50 of less than 100 µM.

As to `CCOc1ccc(Nc2c(C)c(N[C@H]3CC[C@H](N)CC3)nc3c(CC)cnn23)cc1`, the IC50 is less than 100 µM. For the compound `CCc1c(N[C@H]2CC[C@H](N)CC2)nc2ccnn2c1Nc1ccc(OC(F)(F)C(F)F)cc1`, the IC50 is less than 100 µM. `CCOc1ccc(Nc2c(C)c(N[C@H]3CC[C@H](N)CC3)nc3c(C(C)C)cnn23)cc1` came in with an IC50 of less than 100 µM. Take `Cc1c(N[C@H]2CC[C@H](N)CC2)nc2ccnn2c1Nc1ccc(-c2ccoc2)cc1`: the IC50 was less than 100 µM. The compound `Cc1c(N[C@H]2CC[C@H](N)CC2)nc2ccnn2c1Nc1ccc(OCC2CCCCN2)cc1` (some centres undefined) came in with an IC50 of less than 100 µM. The compound `Cc1c(N[C@H]2CC[C@H](N)CC2)nc2ccnn2c1Nc1ccc2[nH]ccc2c1` displayed an IC50 of less than 100 µM. `Cc1c(N[C@H]2CC[C@H](N)CC2)nc2ccnn2c1Nc1ccc(N2CCCCC2)cc1` displayed an IC50 of less than 100 µM. The compound `Cc1c(N[C@H]2CC[C@H](N)CC2)nc2ccnn2c1Nc1ccc(OCc2cccc(Cl)c2)cc1` gave an IC50 of less than 100 µM. `CC(=O)c1ccc(-c2ccc(Nc3c(C)c(N[C@H]4CC[C@H](N)CC4)nc4ccnn34)cc2)s1` registered an IC50 of less than 100 µM.

The compound `CCCc1c(N[C@H]2CC[C@H](N)CC2)nc2c(Br)cnn2c1Nc1ccc(F)c(Cl)c1` returned an IC50 of less than 100 µM. Next, `Cc1c(N[C@H]2CC[C@H](N)CC2)nc2ccnn2c1Nc1cccc(OCCC2CCCCC2)c1`: less than 100 µM; `CCOC(=O)c1ccc(Nc2c(CC)c(N[C@H]3CC[C@H](N)CC3)nc3ccnn23)cc1`: less than 100 µM.

With `N#Cc1cnn2c(Nc3ccccc3Cl)cc(N[C@H]3CC[C@H](N)CC3)nc12`, the IC50 was less than 100 µM. In turn, `COc1c(N[C@H]2CC[C@H](N)CC2)nc2ccnn2c1Nc1ccc(F)c(Cl)c1` came in with an IC50 of less than 100 µM. To `Cc1c(N[C@H]2CC[C@H](N)CC2)nc2ccnn2c1Nc1cccc(CO)c1` belongs less than 100 µM; to `Fc1ccc(Nc2cc(NC3CCCNC3)nc3c(Br)cnn23)cc1Cl` (centres undefined), less than 100 µM; to `Cc1c(N[C@H]2CC[C@H](N)CC2)nc2ccnn2c1Nc1ccc(-c2ccc(N(C)C)cc2)cc1`, less than 100 µM. In turn, `Cc1c(N[C@H]2CC[C@H](N)CC2)nc2ccnn2c1Nc1ccc(OCc2ccccc2)cc1` came in with an IC50 of less than 100 µM. The compound `N[C@H]1CC[C@H](Nc2nc3ccnn3c(Nc3ccc(F)c(Cl)c3)c2-c2ccccc2)CC1` showed an IC50 of less than 100 µM. To `Cc1c(N[C@H]2CC[C@H](N)CC2)nc2ccnn2c1Nc1ccc(OCc2cccnc2)cc1` belongs less than 100 µM; to `CCOc1ccc(Nc2c(C)c(N[C@H]3CC[C@H](N)CC3)nc3c(C(=O)Nc4ccccn4)cnn23)cc1`, less than 100 µM. In the case of `CCc1c(N[C@H]2CC[C@H](N)CC2)nc2ccnn2c1Nc1ccc(C(N)=O)cc1`, the IC50 was less than 100 µM. As to `CCc1c(N[C@H]2CC[C@H](N)CC2)nc2ccnn2c1Nc1ccc(OC)c(C(F)(F)F)c1`, the IC50 is less than 100 µM. `Cc1c(N[C@H]2CC[C@H](N)CC2)nc2ccnn2c1Nc1ccc(-c2cc3ccccc3s2)cc1`: the IC50 was less than 100 µM. Next, `Cc1c(N[C@H]2CC[C@H](N)CC2)nc2ccnn2c1Nc1ccc(-c2ccc(C(F)(F)F)cc2)cc1`: less than 100 µM.

For the compound `Cc1c(N[C@H]2CC[C@H](N)CC2)nc2ccnn2c1Nc1ccc(-c2ccccc2Cl)cc1`, the IC50 is less than 100 µM. In turn, `CCOc1ccc(Nc2c(C)c(N[C@H]3CC[C@H](N)CC3)nc3c(OC)cnn23)cc1` registered an IC50 of less than 100 µM. In turn, `Cc1c(N[C@H]2CC[C@H](N)CC2)nc2ccnn2c1Nc1ccc(-c2ccccc2)cc1` yielded an IC50 of less than 100 µM. In turn, `CCOc1ccc(Nc2c(C)c(N[C@H]3CC[C@H](N)CC3)nc3c(C(=O)Nc4cc[nH]n4)cnn23)cc1` had an IC50 of less than 100 µM.

The compound `Cc1c(N[C@H]2CC[C@H](N)CC2)nc2ccnn2c1Nc1ccc(OC(F)(F)F)c(Cl)c1` yielded an IC50 of less than 100 µM.

With `Cc1c(N[C@H]2CC[C@H](N)CC2)nc2ccnn2c1Nc1ccc(-c2cn[nH]c2)cc1`, the IC50 was less than 100 µM.

`CCc1c(N[C@H]2CC[C@H](N)CC2)nc2ccnn2c1Nc1cccc(OCc2ccccc2)c1` registered an IC50 of less than 100 µM. On to `Cc1c(N[C@H]2CC[C@H](N)CC2)nc2ccnn2c1Nc1ccc(-c2cccc(N(C)C)c2)cc1`, for which the IC50 was less than 100 µM. The compound `N#Cc1cnn2c(Nc3ccc(F)c(Cl)c3)cc(N[C@H]3CC[C@H](N)CC3)nc12` showed an IC50 of less than 100 µM. To `Cc1c(N[C@H]2CC[C@H](N)CC2)nc2ccnn2c1Nc1ccc(C(=O)NC2CCCC2)cc1` belongs less than 100 µM.

The compound `CCOc1ccc(Nc2c(C)c(N[C@H]3CC[C@H](N)CC3)nc3c(C(=O)NCCN(C)C)cnn23)cc1` showed an IC50 of less than 100 µM. To `CCc1c(N[C@H]2CC[C@H](N)CC2)nc2ccnn2c1Nc1ccc(OC(F)(F)F)cc1` belongs less than 100 µM; to `CCOc1ccc(Nc2c(C)c(NC(CO)C(C)C)nc3ccnn23)cc1` (centres undefined), less than 100 µM; to `Cc1ccccc1-c1ccc(Nc2c(C)c(N[C@H]3CC[C@H](N)CC3)nc3ccnn23)cc1`, less than 100 µM.

As for `Cc1c(N[C@H]2CC[C@H](N)CC2)nc2ccnn2c1Nc1ccc(-c2ccccc2C(F)(F)F)cc1`, the IC50 is less than 100 µM. Compound `CCc1c(N[C@H]2CC[C@H](N)CC2)nc2ccnn2c1Nc1ccccc1OC` showed an IC50 of less than 100 µM. `CCOc1ccc(Nc2c(C)c(N[C@H]3CC[C@H](N)CC3)nc3c(C(=O)Nc4ncc[nH]4)cnn23)cc1` showed an IC50 of less than 100 µM. As for `Cc1c(N[C@H]2CC[C@H](N)CC2)nc2ccnn2c1Nc1ccc(OC2CCOCC2)cc1`, the half-inhibitory concentration (IC50) is less than 100 µM.

Regarding `Cc1c(N[C@H]2CC[C@H](N)CC2)nc2ccnn2c1Nc1ccc(I)cc1`, the IC50 is less than 100 µM. In the case of `CCc1c(NC2CCCNC2)nc2c(Cl)cnn2c1Nc1ccc(I)cc1` (centres undefined), the 50% inhibitory concentration (IC50) is less than 100 µM. To `Cc1c(N[C@H]2CC[C@H](N)CC2)nc2ccnn2c1Nc1cccc(OCCn2ccnc2)c1` belongs less than 100 µM. `Cc1c(N[C@H]2CC[C@H](N)CC2)nc2ccnn2c1Nc1cccc(Br)c1` displayed an IC50 of less than 100 µM. Compound `CCc1c(NC2CCCNC2)nc2ccnn2c1Nc1ccc(Oc2ccc(C)cc2)cc1` (centres undefined) had an IC50 of less than 100 µM. In turn, `Cc1c(N[C@H]2CC[C@H](N)CC2)nc2c(F)cnn2c1Nc1ccc(I)cc1` yielded an IC50 of less than 100 µM. Next, `CCCNc1c(C)c(N[C@H]2CC[C@H](N)CC2)nc2ccnn12`: less than 100 µM.

Compound `CCOC(=O)c1ccc(Nc2c(CC)c(N[C@H]3CC[C@H](N)CC3)nc3ccnn23)cc1Cl` registered an IC50 of less than 100 µM. In turn, `CCOc1ccc(Nc2c(C)c(N[C@@H]3CCNC3)nc3ccnn23)cc1` registered an IC50 of less than 100 µM. `Cc1c(N[C@H]2CC[C@H](N)CC2)nc2ccnn2c1Nc1ccc(CO)cc1` returned a half-inhibitory concentration (IC50) of less than 100 µM.
